Data taken from the NIST ThermoML archive (doi:10.1021/je300134c).

Test: xn = mol fraction of the nth substance listed
Conditions: 101 kPa, Liquid; for speed of sound: Sing-around technique in a fixed-path interferometer; for mass density: Vibrating tube method

CCCC[n+]1ccn(CC)c1.O=S(=O)([O-])C(F)(F)F + O
Conditions	mass density [kg/m3]	speed of sound [m/s]
278.15 K, x1 = 0.04992	1120.13	1524
278.15 K, x1 = 0.1001	1171.15	1521.3
278.15 K, x1 = 0.1498	1199.88	1514.7
278.15 K, x1 = 0.1998	1218.01	1505.6
278.15 K, x1 = 0.3013	1239.57	1484.6
278.15 K, x1 = 0.4012	1251.73	1467.7
278.15 K, x1 = 0.496	1259.25	1455.4
278.15 K, x1 = 0.6017	1265.19	1444.9
278.15 K, x1 = 0.7007	1269.28	1436.2
278.15 K, x1 = 0.8551	1274.04	1428
278.15 K, x1 = 0.9006	1275.29	1424.8
278.15 K, x1 = 1	1278.02	1420.6
288.15 K, x1 = 0.04992	1114.86	1527.1
288.15 K, x1 = 0.1001	1164.38	1513.5
288.15 K, x1 = 0.1498	1192.37	1500.2
288.15 K, x1 = 0.1998	1210.13	1487.1
288.15 K, x1 = 0.3013	1231.45	1462.7
288.15 K, x1 = 0.4012	1243.63	1444.7
288.15 K, x1 = 0.496	1251.19	1432
288.15 K, x1 = 0.6017	1257.22	1421
288.15 K, x1 = 0.7007	1261.36	1412.4
288.15 K, x1 = 0.8551	1266.2	1403.7
288.15 K, x1 = 0.9006	1267.39	1400.7
288.15 K, x1 = 1	1269.97	1396.3
298.15 K, x1 = 0.04992	1109.08	1526.5
298.15 K, x1 = 0.1001	1157.27	1503
298.15 K, x1 = 0.1498	1184.63	1484.1
298.15 K, x1 = 0.1998	1202.11	1467.7
298.15 K, x1 = 0.3013	1223.27	1440.8
298.15 K, x1 = 0.4012	1235.48	1422
298.15 K, x1 = 0.496	1243.13	1409
298.15 K, x1 = 0.6017	1249.23	1397.9
298.15 K, x1 = 0.7007	1253.44	1389.3
298.15 K, x1 = 0.8551	1258.37	1380.5
298.15 K, x1 = 0.9006	1259.57	1377.5
298.15 K, x1 = 1	1262.21	1373.1
308.15 K, x1 = 0.04992	1102.81	1522.5
308.15 K, x1 = 0.1001	1149.85	1490.2
308.15 K, x1 = 0.1498	1176.7	1466.4
308.15 K, x1 = 0.1998	1193.95	1447.6
308.15 K, x1 = 0.3013	1215.04	1418.7
308.15 K, x1 = 0.4012	1227.32	1399.3
308.15 K, x1 = 0.496	1235.04	1386.3
308.15 K, x1 = 0.6017	1241.24	1375.1
308.15 K, x1 = 0.7007	1245.51	1366.7
308.15 K, x1 = 0.8551	1250.54	1357.8
308.15 K, x1 = 0.9006	1251.76	1355
308.15 K, x1 = 1	1254.44	1350.6
318.15 K, x1 = 0.04992	1096.1	1515.2
318.15 K, x1 = 0.1001	1142.14	1475.1
318.15 K, x1 = 0.1498	1168.57	1447.5
318.15 K, x1 = 0.1998	1185.67	1426.7
318.15 K, x1 = 0.3013	1206.74	1396.3
318.15 K, x1 = 0.4012	1219.13	1376.7
318.15 K, x1 = 0.496	1226.96	1363.7
318.15 K, x1 = 0.6017	1233.26	1352.5
318.15 K, x1 = 0.7007	1237.61	1344.3
318.15 K, x1 = 0.8551	1242.74	1335.7
318.15 K, x1 = 0.9006	1243.97	1333
318.15 K, x1 = 1	1246.71	1328.6
328.15 K, x1 = 0.04992	1088.96	1504.9
328.15 K, x1 = 0.1001	1134.15	1458.2
328.15 K, x1 = 0.1498	1160.26	1427.4
328.15 K, x1 = 0.1998	1177.26	1405
328.15 K, x1 = 0.3013	1198.39	1373.8
328.15 K, x1 = 0.4012	1210.91	1354.1
328.15 K, x1 = 0.496	1218.87	1341.2
328.15 K, x1 = 0.6017	1225.3	1330.3
328.15 K, x1 = 0.7007	1229.73	1322.3
328.15 K, x1 = 0.8551	1234.98	1314
328.15 K, x1 = 0.9006	1236.23	1311.3
328.15 K, x1 = 1	1239.01	1307.1
338.15 K, x1 = 0.04992	1081.43	1492
338.15 K, x1 = 0.1001	1125.92	1439.7
338.15 K, x1 = 0.1498	1151.76	1406.4
338.15 K, x1 = 0.1998	1168.74	1382.8
338.15 K, x1 = 0.3013	1189.99	1351.2
338.15 K, x1 = 0.4012	1202.68	1331.6
338.15 K, x1 = 0.496	1210.79	1319
338.15 K, x1 = 0.6017	1217.37	1308.4
338.15 K, x1 = 0.7007	1221.89	1300.7
338.15 K, x1 = 0.8551	1227.27	1292.7
338.15 K, x1 = 0.9006	1228.53	1290.2
338.15 K, x1 = 1	1231.35	1286.1
